# Experimental data as given in patent EP4667458A1 (Kanaph Therapeutics Inc., priority 2023, dated 2024).
# Molecular target: T1, KRAS^G12C::SOS1 (Homo sapiens, UniProt Q07889)
# T1 sequence (Q07889 1-1333): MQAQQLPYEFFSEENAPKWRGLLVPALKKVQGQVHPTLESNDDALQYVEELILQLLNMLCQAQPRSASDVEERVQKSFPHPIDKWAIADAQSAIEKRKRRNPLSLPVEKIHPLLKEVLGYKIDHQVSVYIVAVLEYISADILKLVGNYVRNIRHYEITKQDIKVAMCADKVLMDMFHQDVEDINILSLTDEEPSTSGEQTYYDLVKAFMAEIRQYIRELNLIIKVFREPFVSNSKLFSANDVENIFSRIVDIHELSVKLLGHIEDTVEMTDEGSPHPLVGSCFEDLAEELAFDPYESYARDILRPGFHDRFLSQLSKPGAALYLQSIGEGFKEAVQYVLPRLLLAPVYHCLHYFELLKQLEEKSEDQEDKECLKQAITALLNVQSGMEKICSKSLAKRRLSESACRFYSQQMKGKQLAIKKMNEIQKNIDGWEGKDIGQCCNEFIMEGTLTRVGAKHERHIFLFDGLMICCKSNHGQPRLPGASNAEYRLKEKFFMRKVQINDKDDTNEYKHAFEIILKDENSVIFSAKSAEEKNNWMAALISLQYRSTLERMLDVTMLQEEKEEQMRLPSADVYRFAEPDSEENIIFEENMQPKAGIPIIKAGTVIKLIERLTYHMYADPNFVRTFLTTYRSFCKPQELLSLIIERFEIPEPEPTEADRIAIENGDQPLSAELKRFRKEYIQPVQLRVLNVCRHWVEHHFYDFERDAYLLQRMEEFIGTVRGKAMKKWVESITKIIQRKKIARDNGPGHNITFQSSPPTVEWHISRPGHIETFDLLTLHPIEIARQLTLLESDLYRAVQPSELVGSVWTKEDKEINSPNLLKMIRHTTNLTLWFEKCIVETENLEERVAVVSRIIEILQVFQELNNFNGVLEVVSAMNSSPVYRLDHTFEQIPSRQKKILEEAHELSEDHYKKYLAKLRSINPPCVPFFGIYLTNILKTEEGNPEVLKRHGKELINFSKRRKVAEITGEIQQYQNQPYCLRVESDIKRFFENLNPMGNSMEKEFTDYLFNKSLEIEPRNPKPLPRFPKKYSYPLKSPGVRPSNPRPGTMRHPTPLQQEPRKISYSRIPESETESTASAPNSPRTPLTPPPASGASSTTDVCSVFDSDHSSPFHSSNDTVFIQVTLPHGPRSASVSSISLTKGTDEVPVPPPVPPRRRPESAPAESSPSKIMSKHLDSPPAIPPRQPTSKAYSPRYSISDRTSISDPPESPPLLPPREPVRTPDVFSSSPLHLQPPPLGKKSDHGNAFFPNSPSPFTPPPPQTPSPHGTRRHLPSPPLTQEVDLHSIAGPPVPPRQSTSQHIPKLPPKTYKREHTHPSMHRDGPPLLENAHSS
# Test: KRAS G12C::SOS1 protein-protein interaction (PPI) inhibition assay (HTRF binding kit)
row,Compound,IC50 [µM]
1,"COc1cccc(-n2nc(C(=O)N[C@H](C)c3cc(N)cc(C(F)(F)F)c3)ccc2=O)c1F [Example 185, N-[(1R)-1-[3-amino-5-(trifluoromethyl)phenyl]ethyl]-1-(2-fluoro-3-methoxy-phenyl)-6-oxo-pyridazine-3-carboxamide]",< 1
2,"C[C@@H](NC(=O)c1ccc(=O)n(-c2cccc(F)c2F)n1)c1cccc(C(F)(F)CO)c1F [Example 355, N-[(1R)-1-[3-(1,1-difluoro-2-hydroxy-ethyl)-2-fluoro-phenyl]ethyl]-1-(2,3-difluorophenyl)-6-oxo-pyridazine-3-carboxamide]",< 1
3,"C[C@@H](NC(=O)c1ccc(=O)n(-c2ccccc2F)n1)c1cccc(C(F)(F)CO)c1F [Example 217, N-[(1R)-1-[3-(1,1-difluoro-2-hydroxy-ethyl)-2-fluoro-phenyl]ethyl]-1-(2-fluorophenyl)-6-oxo-pyridazine-3-carboxamide]",< 1
4,"C[C@@H](NC(=O)c1nn(-c2ccccc2F)c(=O)cc1NS(C)(=O)=O)c1cc(N)cc(C(F)(F)F)c1 [Example 384, N-[(1R)-1-[3-amino-5-(trifluoromethyl)phenyl]ethyl]-1-(2-fluorophenyl)-4-(methanesulfonamido)-6-oxo-pyridazine-3-carboxamide]",< 1
5,C[C@@H](NC(=O)c1ccc(=O)n(-c2ncccc2F)n1)c1cc(N)cc(C(F)(F)F)c1 [Example 388],> 10
6,"CNCc1ccccc1-c1ccc([C@@H](C)NC(=O)c2ccc(=O)n(-c3cccnc3F)n2)s1 [Example 412, 1-(2-fluoropyridin-3-yl)-N-[(1R)-1-(5-{2-[(methylamino)methyl]phenyl}thiophen-2-yl)ethyl]-6-oxo-1,6-dihydropyridazine-3-carboxamide]",< 1
7,"CNCc1ccc(F)cc1-c1ncc([C@@H](C)NC(=O)c2ccc(=O)n(-c3ccccc3F)n2)s1 [Example 396, N-[(1R)-1-[2-[5-fluoro-2-(methylaminomethyl)phenyl]thiazol-5-yl]ethyl]-1-(2-fluorophenyl)-6-oxo-pyridazine-3-carboxamide]",< 1
8,"CNCc1ccc(Cl)cc1-c1ccc([C@@H](C)NC(=O)c2ccc(=O)n(-c3cccnc3F)n2)s1 [Example 270, N-[(1R)-1-[5-[5-chloro-2-(methylaminomethyl)phenyl]-2-thienyl]ethyl]-1-(2-fluoro-3-pyridyl)-6-oxo-pyridazine-3-carboxamide]",< 1
9,"CNCc1ccccc1-c1ccc([C@@H](C)NC(=O)c2nn(-c3ccccc3F)c(=O)c3cc[nH]c23)s1 [Example 268, 5-(2-fluorophenyl)-N-[(1R)-1-[5-[2-(methylaminomethyl)phenyl]-2-thienyl]ethyl]-4-oxo-1H-pyrrolo[2,3-d]pyridazine-7-carboxamide]",< 1
10,"C[C@@H](NC(=O)c1ccc(=O)n(-c2ccccc2F)n1)c1cccc(-n2ccccc2=O)c1 [Example 303, 1-(2-fluorophenyl)-6-oxo-N-[(1R)-1-[3-(2-oxo-1-pyridyl)phenyl]ethyl]pyridazine-3-carboxamide]",> 10
11,"C[C@@H](NC(=O)c1nn(-c2ccccc2F)c(=O)cc1N)c1cccc(C(F)(F)CO)c1F [Example 379, 4-amino-N-[(1R)-1-[3-(1,1-difluoro-2-hydroxy-ethyl)-2-fluorophenyl]ethyl]-1-(2-fluorophenyl)-6-oxo-pyridazine-3-carboxamide]",< 1
12,"C[C@@H](NC(=O)c1ccc(=O)n(CCO)n1)c1cc(N)cc(C(F)(F)F)c1 [Example 223, N-[(1R)-1-[3-amino-5-(trifluoromethyl)phenyl]ethyl]-1-(2-hydroxyethyl)-6-oxo-pyridazine-3-carboxamide]",< 1
13,"C[C@@H](NC(=O)c1ccc(=O)n(-c2cccc(C(=O)N3CCOCC3)c2)n1)c1cc(N)cc(C(F)(F)F)c1 [Example 254, N-[(1R)-1-[3-amino-5-(trifluoromethyl)phenyl]ethyl]-1-[3-(morpholine-4-carbonyl)phenyl]-6-oxo-pyridazine-3-carboxamide]",< 1
14,"C[C@@H](NC(=O)c1ccc(=O)n(-c2ccc3c(c2)COC3)n1)c1cc(N)cc(C(F)(F)F)c1 [Example 208, N-[(1R)-1-[3-amino-5-(trifluoromethyl)phenyl]ethyl]-1-(1,3-dihydroisobenzofuran-5-yl)-6-oxo-pyridazine-3-carboxamide]",< 1
15,"C[C@@H](NC(=O)c1nn(-c2ccccc2)c(=O)cc1Cl)c1cc(N)cc(C(F)(F)F)c1 [Example 220, N-[(1R)-1-[3-amino-5-(trifluoromethyl)phenyl]ethyl]-4-chloro-6-oxo-1-phenyl-pyridazine-3-carboxamide]",< 1
16,"CNCc1cc(F)c(Cl)cc1-c1ccc([C@@H](C)NC(=O)c2ccc(=O)n(-c3cccnc3F)n2)s1 [Example 399, N-[(1R)-1-(5-{5-chloro-4-fluoro-2-[(methylamino)methyl]phenyl}thiophen-2-yl)ethyl]-1-(2-fluoropyridin-3-yl)-6-oxo-1,6-dihydropyridazine-3-carboxamide]",< 1
17,"C[C@@H](NC(=O)c1ccc(=O)n(-c2cccc(-c3ncn(C)n3)c2)n1)c1cc(N)cc(C(F)(F)F)c1 [Example 323, N-[(1R)-1-[3-amino-5-(trifluoromethyl)phenyl]ethyl]-1-[3-(1-methyl-1,2,4-triazol-3-yl)phenyl]-6-oxo-pyridazine-3-carboxamide]",< 1
18,"C[C@@H](NC(=O)c1ccc(=O)n(-c2cccc(C(=O)N3CCN(C)CC3)c2)n1)c1cc(N)cc(C(F)(F)F)c1 [Example 255, N-[(1R)-1-[3-amino-5-(trifluoromethyl)phenyl]ethyl]-1-[3-(4-methylpiperazine-1-carbonyl)phenyl]-6-oxo-pyridazine-3-carboxamide]",< 1
19,"CNCc1ccccc1-c1ccc([C@@H](C)NC(=O)c2ccc(=O)n(-c3ccccc3F)n2)s1 [Example 298, 1-(2-fluorophenyl)-N-[(1R)-1-[5-[2-(methylaminomethyl)phenyl]-2-thienyl]ethyl]-6-oxo-pyridazine-3-carboxamide]",< 1
20,"C[C@@H](NC(=O)c1ccc(=O)n(-c2ccccc2F)n1)c1cccc(C(F)(F)C(C)(C)O)c1F [Example 192, N-[(1R)-1-[3-(1,1-difluoro-2-hydroxy-2-methyl-propyl)-2-fluoro-phenyl]ethyl]-1-(2-fluorophenyl)-6-oxo-pyridazine-3-carboxamide]",< 1
21,CCn1cc(-n2nc(C(=O)N[C@H](C)c3ccc(-c4cc(Cl)ccc4CNC)s3)ccc2=O)cn1 [Example 405],< 1
22,"CCNCc1ccc(F)cc1-c1ccc([C@@H](C)NC(=O)c2ccc(=O)n(-c3cccnc3F)n2)s1 [Example 289, N-[(1R)-1-[5-[2-(ethylaminomethyl)-5-fluorophenyl]-2-thienyl]ethyl]-1-(2-fluoro-3-pyridyl)-6-oxo-pyridazine-3-carboxamide]",< 1
23,"C[C@@H](NC(=O)c1ccc(=O)n(-c2ccccc2F)n1)c1cccc(C(F)(F)CN(C)C)c1 [Example 258, N-[(1R)-1-[3-[2-(dimethylamino)-1,1-difluoro-ethyl]phenyl]ethyl]-1-(2-fluorophenyl)-6-oxo-pyridazine-3-carboxamide]",< 1
24,"C[C@@H](NC(=O)c1ccc(=O)n(-c2cccc(-c3ccon3)c2)n1)c1cc(N)cc(C(F)(F)F)c1 [Example 376, N-[(1R)-1-[3-amino-5-(trifluoromethyl)phenyl]ethyl]-1-(3-isoxazol-3-ylphenyl)-6-oxo-pyridazine-3-carboxamide]",< 1
